{
  "source": "patent US20030021856A1",
  "about": "“New use of ammonium compounds and/or urea” (priority 1996, published 2003)",
  "key": {"[1]": {"assay": "Peroral self-administration of ammonium chloride by the inventor (respiratory gas exchange)", "type": "in vivo, human", "details": "80 mmoles ammonium chloride perorally", "excerpt": "Please replace the paragraph beginning at line 1 on page 5 with the following: portal area, especially at acidosis, can be utilized for synthesis of glutamine in the liver. […] When the patient treated is breathing by themself, the supply of ammonium will bring about a so-called compensatory hyperventilation. […] Furthermore, there is a report on the concentration of urea in the vitreous body of dead SIDS patients which is compared to autopsy material from children deceased from other causes at the same age [Blumenfeld T A, et al, Am J Clin Pathol, 71, 219-223 (1979)]. It appeared that children deceased from SIDS have lower urea values than children deceased from other causes. […] The low concentration of urea found is thus not inconsistent with the hypothesis put forward here."}, "[2]": {"details": "supplied intravenously and perorally; known by intensive care physicians; cited from earlier work"}},
  "data": [
    {"compound": "Cl.N", "note": "[ammonium chloride]", "values": [
      {"measurement": "duration of the increased carbon dioxide elimination", "setting": "[1]", "result": "~1", "unit": "h"},
      {"measurement": "effect on ventilation", "setting": "[1]", "result": "slight hyperventilation"},
      {"measurement": "increase in elimination of carbon dioxide", "setting": "[1]", "result": 30, "unit": "mL/min"},
      {"measurement": "resorption from the gastrointestinal tract", "setting": "[1]", "result": "resorbed very quickly"},
      {"measurement": "total carbon dioxide corresponding to the increased elimination", "setting": "[1]; 30 ml/min for nearly 1h", "result": "about 80 mmoles"},
      {"measurement": "RQ (Respiratory Quotient = carbon dioxide emission / oxygen gas uptake) after administration", "setting": "[1]; value at rest 0.82", "result": 0.87},
      {"measurement": "effect on base excess values", "setting": "[2]", "result": "lowers base excess values"}
    ]}
  ]
}
